Experimental data from patent publication US20160108381A1, “DNA POLYMERASES AND MUTANTS THEREOF” (LIFE TECHNOLOGIES CORPORATION, priority 2001, published 2016).

How the values were obtained:
[1] = target: T1, Clostridium stercorarium DNA polymerase, N-terminal His6 tag (Cst-His), SEQ ID NO:14 (Thermoclostridium stercorarium, UniProt L7VMI6); assay: Steady-state kinetics, DNA- and RNA-dependent polymerase activity
T1 sequence (L7VMI6 with tags, fused parts or gaps): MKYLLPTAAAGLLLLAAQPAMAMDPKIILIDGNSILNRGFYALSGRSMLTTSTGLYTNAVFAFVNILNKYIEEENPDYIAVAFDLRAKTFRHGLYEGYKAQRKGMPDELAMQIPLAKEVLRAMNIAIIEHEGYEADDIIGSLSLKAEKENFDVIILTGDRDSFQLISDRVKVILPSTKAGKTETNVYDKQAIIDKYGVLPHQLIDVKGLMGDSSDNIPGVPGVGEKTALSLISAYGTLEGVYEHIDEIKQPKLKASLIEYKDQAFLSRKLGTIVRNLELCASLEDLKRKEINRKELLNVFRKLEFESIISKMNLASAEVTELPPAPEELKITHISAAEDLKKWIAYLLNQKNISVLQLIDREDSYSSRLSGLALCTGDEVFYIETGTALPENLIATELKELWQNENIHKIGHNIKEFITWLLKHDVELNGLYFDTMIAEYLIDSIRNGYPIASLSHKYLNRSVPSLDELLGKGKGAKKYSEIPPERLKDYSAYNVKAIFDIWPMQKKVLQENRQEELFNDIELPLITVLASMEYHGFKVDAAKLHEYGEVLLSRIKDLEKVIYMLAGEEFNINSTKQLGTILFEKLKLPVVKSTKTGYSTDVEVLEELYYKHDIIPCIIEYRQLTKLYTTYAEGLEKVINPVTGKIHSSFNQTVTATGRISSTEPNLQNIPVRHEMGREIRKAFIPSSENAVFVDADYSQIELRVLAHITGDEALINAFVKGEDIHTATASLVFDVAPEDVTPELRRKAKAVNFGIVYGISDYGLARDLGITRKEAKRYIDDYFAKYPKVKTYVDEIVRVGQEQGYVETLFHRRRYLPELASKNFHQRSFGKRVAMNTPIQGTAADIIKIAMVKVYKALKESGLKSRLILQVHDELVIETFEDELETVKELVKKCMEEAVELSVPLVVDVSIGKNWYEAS
Source text: (§1) Subcloning of genes for Cst and Cth DNA polymerases. In order to improve expression and simplify purification of Cst and Cth DNA polymerase, the genes were subcloned downstream of a T7 promoter and an amino-terminal His6 tag sequence was introduced using Gateway cloning technology (Invitrogen Corporation, Carlsbad, Calif.). The sequence of the DNA oligonucleotide used at the 5′ end of the Cst gene was: 5′-[…] ATAGAC 3′ (SEQ ID NO:37). The sequence of the DNA oligonucleotide used at the 5′ end of the Cth gene was: 5′-[…] […]-3′ (SEQ ID NO:38). The sequence of the DNA oligonucleotide used at the 3′ end of each gene was the same: 5′-[…] […] 3′ (SEQ ID NO:39). Purified pET26B plasmid DNA (Novagen Inc., Madison, Wis.) bearing the gene for Cst or Cth DNA polymerase was amplified by PCR utilizing the primers listed above and Platinum Taq HiFi DNA polymerase (Invitrogen Corporation, Carlsbad, Calif.). PCR products purified by agarose gel electrophoresis were cloned into Gateway vector pDON21 and transferred by recombination into vector pDEST17. […] Each final recombinant plasmid was transformed into the E. coli expression host BL21-AI (Invitrogen Corporation, Carlsbad, Calif.).
(§2) Purification of Cst-His and Cth-His DNA polymerases. E. coli cells (BL21AI) bearing the plasmid pDEST17 with the gene for Cst-His or Cth-His DNA polymerase were grown in 2.8-1 Fembach flasks in LB broth containing 50 μg/ml ampicillin at 37° C. After the culture reached an A590 of 1.0, expression of DNA polymerase was induced by the addition of 0.2% arabinose for 3 hr. Cells were harvested by centrifugation and stored at −70° C.
(§3) Steady-state kinetic measurements.
(§4) The assays were conducted in the presence of 1.5 mM MgCl2 at 55° C. for all enzymes except the Caldibacillus cellulovorans CompA.2 enzyme where 2 mM MgCl2 and 45° C. were used.

[2] = target: T2, Clostridium thermosulfurogenes DNA polymerase, N-terminal His6 tag (Cth-His), SEQ ID NO:15 (Thermoanaerobacterium thermosulfurigenes, UniProt Q6X9R5); assay: as above
T2 sequence (Q6X9R5 with tags, fused parts or gaps): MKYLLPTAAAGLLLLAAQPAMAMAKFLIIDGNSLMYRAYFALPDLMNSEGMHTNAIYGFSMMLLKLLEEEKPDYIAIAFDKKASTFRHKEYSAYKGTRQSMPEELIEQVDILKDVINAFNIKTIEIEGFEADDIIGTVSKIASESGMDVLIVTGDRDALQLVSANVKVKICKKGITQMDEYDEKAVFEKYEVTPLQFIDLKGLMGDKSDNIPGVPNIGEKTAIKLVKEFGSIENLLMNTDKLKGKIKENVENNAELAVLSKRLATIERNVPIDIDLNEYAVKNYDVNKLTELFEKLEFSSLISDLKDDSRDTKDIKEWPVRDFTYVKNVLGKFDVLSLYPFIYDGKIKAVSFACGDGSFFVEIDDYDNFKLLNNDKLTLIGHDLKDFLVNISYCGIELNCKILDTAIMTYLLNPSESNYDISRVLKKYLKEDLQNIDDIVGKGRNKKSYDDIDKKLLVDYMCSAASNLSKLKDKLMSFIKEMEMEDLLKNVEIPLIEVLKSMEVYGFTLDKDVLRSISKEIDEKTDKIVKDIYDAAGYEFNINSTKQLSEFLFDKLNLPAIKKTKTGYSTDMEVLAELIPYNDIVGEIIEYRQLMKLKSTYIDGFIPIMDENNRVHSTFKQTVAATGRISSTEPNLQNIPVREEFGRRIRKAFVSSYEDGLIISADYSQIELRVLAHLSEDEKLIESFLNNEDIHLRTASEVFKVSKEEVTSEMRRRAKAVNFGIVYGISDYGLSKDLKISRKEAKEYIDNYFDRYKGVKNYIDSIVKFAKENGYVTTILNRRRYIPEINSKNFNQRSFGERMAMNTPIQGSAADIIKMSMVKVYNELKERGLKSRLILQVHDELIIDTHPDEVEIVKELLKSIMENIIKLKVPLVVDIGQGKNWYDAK
Source text: as §1, §2, §3, §4

[3] = Table 34, RNA template, 2 mM MgCl2, 45 °C per footnote
[4] = read-out: Km RNA (dTTP), Table 34, RNA template, 2 mM MgCl2, 45 °C per footnote

## Cc1cn([C@H]2C[C@H](O)[C@@H](COP(=O)(O)OP(=O)(O)OP(=O)(O)O)O2)c(=O)[nH]c1=O [dTTP]
[1]; [3]
  Kcat RNA (dTTP): 19.2 s⁻¹
[1]; Table 40, dTTP, 55 °C
  kCAT Ratio (RNA/DNA): 2.2
[1]; [4]
  Km: 76 µM
[2]; [3]
  Kcat RNA (dTTP): 0.94 s⁻¹
[2]; Table 40, dTTP, 55 °C
  kCAT Ratio (RNA/DNA): 0.57
[2]; [4]
  Km: 68 µM
